Assay [1] concerns Ca2+ permeable AMPAR (CP-AMPAR). Description: Ca2+ imaging (Fluo-3) of hippocampal brain slices, AMPA + CTZ application (CP-AMPA reaction). The class given is cell-based, mouse.
The next assay concerns GluA1. Description: BS3 crosslinking assay / Western blot of GluA1 subunit. To be noted: HFD-fed mice treated with PER, n=4; HFD gave 3-fold increase vs CD. The format is in vivo, mouse. The protocol:
Crosslinking using the BS^3 procedure carried out here was carried out based on previously described methods (60). Hippocampal slices of 17 to 18 week old male C57BL/6J background mice (CD, HFD, and HFD with PER treatment) or 12 to 13 week old ob/ob mice (ob/ob, and ob/ob with PER treatment) were prepared as previously reported (56, 57). Hippocampal slices were prepared and collected, and then CA1, CA2, CA3, DG, and EC regions were separated from the hippocampal slices using a dissection knife. […] The total protein concentration of the lysate was measured using the Lowry method (61). […] BS^3 samples were analyzed by SDS-PAGE directly without purification, and surface and intracellular bands were measured in the same lane, thus no normalization was required and sample throughput was improved. […] Membranes were incubated with HRP-labeled anti-rabbit IgG (1:3,000, Cell Signaling Technology, Danvers, MA, USA) for 30 min and extensively washed again with TBS-T. After soaking the membrane in the chemiluminescence detection substrate Chemi-Lumi One (Nacalai Tesque, Tokyo, Japan) for 1 min, luminescence was detected using a LuminoGraph1 imaging system (Atto, Tokyo, Japan). The surface and intracellular bands of each lane were analyzed using a CS Analyzer (Atto, Tokyo, Japan). […]
(In western blotting, separated proteins are transferred to a membrane and probed.)

The test system of the next assay is Aβ. Description: Aβ accumulation in hippocampus and cerebral cortex of NL-G-F(−/−) mice. The class given is in vivo, mouse. To be noted: perampanel 5 mg/kg from 6 to 15 weeks of age. From the text:
The effect of perampanel administration on Aβ accumulation in the hippocampal dentate gyrus (DG) CA1 and the cerebral cortex (Cx) in the Alzheimer's dementia model mouse (NL-G-F(−/−)) is shown. The X axis indicates the intensity of fluorescence, and the Y axis indicates the fluorescence count.

For the next assay, the system named is NL(−/−) mice. Description: Bicculine-induced epileptiform reactions in NL(−/−) mice. The class given is in vivo, mouse. To be noted: perampanel administration. From the text:
Epilepsy occurs more frequently in AD patients than in the control population (Pascal E 2012), and the incidence of epilepsy increases to 7 to 21% (Amatniek et al., 2006; Hauser et al., 1986; Mendez and Lim, 2003) in sporadic AD patients and 30% in early-onset familial AD (FAD) (Palop and Mucke, 2009; Larner and Doran, 2006). Early latent hippocampal hyperexcitability was detected in AD patients (Lam A D et al., Nat Med 2017). […] In particular, in NL-G-F(−/−) mice (15 to 17 weeks old), significant enhancement of epileptiform reactions in the CA1 and CA2 regions was confirmed by Bicculine (BIC) (refer to FIG. 32). […] In an animal model of AD in which amyloid β is accumulated, it has been reported that an epileptiform reaction is enhanced (Busche, 2008; 2012). Also in this experiment, epileptic induction by bicrine was enhanced in both NL(−/−) mice and NL-G-F(−/−) (15 to 17 weeks old (W)) as compared with control mice.

Where [2] appears, read: HFD-fed mice with oral PER 5 mg/kg/day, AMPA 100 μM + CTZ 100 μM, N = 5.

As for `N#Cc1ccccc1-c1cc(-c2ccccn2)cn(-c2ccccc2)c1=O` [PER, 3-(2-cyanophenyl)-5-(2-pyridyl)-1-phenyl-1,2-dihydropyridine-2-one], in assay [1], the “increase in [Ca2+]i via pathological AMPARs” value is listed as “completely disappeared”; the “inhibitory effect on CP-AMPAR in EC, CA1, CA2, CA3 and DG” value is reported as “significant inhibitory effect”. In assay [1] (setting [2]), the “CP-AMPA reaction CA1 (maximum value of NF525)” value is 1.00 ± 0.01, the “CP-AMPA reaction CA2 (maximum value of NF525)” value is recorded as 1.00 ± 0.02, the “CP-AMPA reaction CA3 (maximum value of NF525)” value turned out to be 1.00 ± 0.01 and the “CP-AMPA reaction DG (maximum value of NF525)” value stood at 1.02 ± 0.01. Also, the “CP-AMPA reaction EC (maximum value of NF525)” value in assay [1] (setting [2]) amounted to 1.05 ± 0.05. For the same compound, in assay [1] (acute slices from HFD-fed mice, 100 μM PER applied), the “elevation of [Ca2+]i via AMPAR” value is reported as “completely disappeared”. Also, the “transmission via AMPAR” value in assay [1] (hippocampal slices from mice fed HFD and PER 5 mg/kg/day orally by hydrogel) is listed as “normalize transmission via AMPAR”. Moreover, the “GluA1 in CA3 (BS3 crosslinking)” value with GluA1 is “reduced GluA1 to basal levels”. The “Aβ accumulation in DG, CA1 and cerebral cortex” value in the assay with Aβ was “decrease in Aβ accumulation”. In the assay with NL(−/−) mice, the “epileptiform reactions induced by bicculine” value is “almost completely abolished”.

These data come from patent publication US20240398775A1, “PHARMACEUTICAL COMPOSITION FOR USE IN TREATING COGNITIVE DECLINE OR FOR USE IN TREATING OVERWEIGHT OR OBESITY” (University of the Ryukyus, priority 2021, published 2024).
